According to PMC7698842, “Lanostane Triterpenoid Metabolites from a Penares sp. Marine Sponge Protect Neuro-2a Cells against Paraquat Neurotoxicity” (Molecules, 2020):

What was measured:
[1] = Cytotoxicity toward Neuro-2a cells (MTT assay); assay type: cell-based, mouse; settings: mouse, Neuro-2a neuroblastoma cells, 24 h
Procedure: The cells of mouse neuroblastoma cell line Neuro-2a (ATCC® CCL-131™; American Type Culture Collection, Manassas, VA, USA) were cultured in Dulbecco’s modified Eagle’s medium (DMEM) containing 10% fetal bovine serum (Biolot, St. Petersburg, Russia) and 1% penicillin/streptomycin (Biolot, St. Petersburg, Russia) at 37 °C in a humidified atmosphere with 5% (v/v) CO2. Initially, cells were incubated in cultural flasks until sub-confluent (~80%). For testing, Neuro-2a cells were seeded in 96- or 6-well plates and experiments were started after 24 h.
(§1) The cells (1 × 10^4 cells/well of a 96-well plate) were incubated with different concentrations of studied compounds during 24 h. After that, cell viability was determined by the MTT (3-(4,5-dimethylthiazol-2-yl)-2,5-diphenyltetrazolium bromide) method according to the manufacturer’s instructions (Sigma-Aldrich, St. Louis, MO, USA). Absorbance of the converted formazan was measured using a Multiskan FC microplate photometer (Thermo Scientific, Waltham, MA, USA) at λ = 570 nm. The results were presented as percent of control data, and concentration of cell viability inhibition on 50% (IC50) was calculated.

[2] = test system: PQ-treated Neuro-2a cells; assay: PQ-treated Neuro-2a cell viability (MTT assay); assay type: cell-based, mouse; settings: compound 1 and 10 µM, PQ 500 µM, 24 h
Procedure: as §1
(§2) The cells (1 × 10^4 cells/well of a 96-well plate) were treated with studied compounds at concentrations of 1 and 10 µM for 1 h and then 500 µM of PQ (Sigma-Aldrich, St. Louis, MO, USA) was added to the neuroblastoma cells. Cells incubated without PQ and compounds and with PQ alone were used as positive and negative controls, respectively. The viability of cells was measured after 24 h using MTT and FDA methods. The results were presented as percent of positive control data.

[3] = test system: PQ-treated Neuro-2a cells; assay: PQ-treated Neuro-2a cell viability (FDA assay); assay type: cell-based, mouse; settings: compound 1 and 10 µM, PQ 500 µM, 24 h
Procedure: A stock solution of the fluorescein diacetate (FDA) (Sigma-Aldrich, St. Louis, MO, USA) in DMSO (1 mg/mL) was prepared. The cells (1 × 10^4 cells/well) were seeded in black 96-well plates before testing. After incubation of the cells with compounds and PQ during 24 h, FDA solution (50 μg/mL) was added to each well and the plate was incubated in the dark at 37 °C for 15 min. Cells were washed with phosphate buffer saline (PBS) (BioloT, S.-Peterburg, Russia) and fluorescence was measured with a Fluoroskan Ascent plate reader (Thermo Labsystems, Helsinki, Finland) at λex = 485 nm and λem = 518 nm. All manipulations with fluorescent probes were carried out in a darkened room. Cell viability was expressed as the percent of control.
as §2

[4] = test system: ROS level in PQ-treated Neuro-2a cells; assay: ROS level analysis in PQ-treated Neuro-2a cells (H2DCFDA); assay type: cell-based, mouse; settings: tested at 1 and 10 μM, PQ 500 µM 1 h
Procedure: The cells (1 × 10^4 cells/well of a 96-well plate) were incubated with compound solutions (1 and 10 µM) during 1 h. Then, PQ was added to cell suspension to a resulting concentration of 500 µM for incubation during 1 h. Cells incubated without PQ and compounds and with PQ alone were used as positive and negative controls, respectively. The 20 µL of 2,7-dichlorodihydrofluorescein diacetate solution (H2DCFDA, Molecular Probes, Eugene, OR, USA) was added to each well (10 µM, final concentration) and the plate was incubated for an additional 10 min at 37 °C. The intensity of dichlorofluorescin fluorescence was measured with a PHERAstar FS plate reader (BMG Labtech, Ortenberg, Germany) at λex = 485 nm and λem = 518 nm. The data were processed by MARS Data Analysis v. 3.01R2 (BMG Labtech, Ortenberg, Germany). The results were presented as percent of positive control data.

[5] = test system: Hsp70 level in Neuro-2a cells; assay: Hsp70 level analysis by Western blot in Neuro-2a cells; assay type: cell-based, mouse; settings: compound 10 µM 1 h, then PQ 500 µM 24 h
Procedure: The Hsp70 expression was detected by Western blot analysis. Cell suspensions (1.6 × 10^5 cells/well of a 6-well plate) were seeded and treated with studied compounds at a concentration of 10 µM for 1 h. After that, PQ (500 µM) was added and cells were incubated during 24 h. Cells incubated without PQ and compounds and with PQ alone were used as positive and negative controls, respectively. Cells were washed by cold PBS (BioloT, Russia) twice and lysed by radioimmunoprecipitation assay (RIPA) buffer (BioloT, St. Peterburg, Russia). The amount of proteins was measured by the Bradford method and equal samples (25 µg) were prepared using sample buffer. Proteins were separated with sodium dodecyl sulphate (SDS) electrophoresis in 10% polyacrylamide gel. The electrophoretically separated proteins were transferred onto the polyvinylidene difluoride (PVDF) membrane Whatman (Sigma-Aldrich, St. Louis, MO, USA) using a semi-dry transfer apparatus (Helicon, Moscow, Russia). […] The peroxidase reaction was visualized by an enhanced chemiluminescence (ECL) kit according to the instructions of the manufacturer (Sigma-Aldrich, St. Louis, MO, USA) using the VersaDoc Imaging System (Bio-Rad, Hercules, CA, USA).

[6] = test system: PQ-treated Neuro-2a cells; assay: Neurite outgrowth estimation in PQ-treated Neuro-2a cells; assay type: cell-based, mouse; settings: compound 10 µM 1 h, then PQ 500 µM 24 h
Procedure: Neurite outgrowth was studied as described by Li et al.. Neuro-2a cells were seeded in 6-well plates (1.6 × 10^5 cells/well) in DMEM medium containing 10% fetal bovine serum (Biolot, St. Peterburg, Russia) and 1% penicillin/streptomycin (Invitrogen, Carlsbad, CA, USA). The next day, this growth media was changed with serum-free DMEM media containing 1% penicillin/streptomycin, and cells were treated with studied compounds at a concentration of 10 µM for 1 h. After that, PQ (500 µM) was added and cells were incubated during 24 h. Cells incubated without PQ and compounds and with PQ alone were used as positive and negative controls, respectively.
For each well, approximately 10 images were acquired randomly by scanning the wells from left to right and top to bottom using the AxioImager A1 microscope (CarlZeiss, Oberkochen, Germany). A total of ten random fields (near 350 cells in each) for each experimental group were scored for neurite outgrowth. The number of neurite-bearing cells and lengths of the individual neurites for each cell were measured using the AxioVision 4.7.1 software (CarlZeiss, Oberkochen, Germany). Length was defined as the straight-line distance from the tip of the neurite to the junction between the cell body and neurite base. In the case of branched neurites, the length of the longest branch was measured from the tip of the neurite to the cell body. In each experimental group, the average length of neurites was calculated, as well as the average number of neurites per one cell.

[7] = test system: histamine release induced by anti-IgE; settings: cited from earlier work

SMILES: CC(C)=CCC[C@@H](C)[C@H]1CC[C@@]2(C(=O)O)C3=C(CC[C@]12C)[C@@]1(C)CCC(=O)C(C)(C)[C@@H]1CC3 [Compound 4, penasterone]
- activity at 24 h, 10 µM ([1]; Neuro-2a cell viability, 10 μM, read-out: Cytotoxicity (MTT Assay) % of Control at 10 μM): 95.3 ± 2.7%
- IC50 at 24 h ([1]; Neuro-2a cells): > 100 µM
- effect on PQ-treated cell viability (MTT assay) [2]: did not show any effect
- effect on PQ-treated cell viability (FDA assay) [3]: did not show any effect
- concentrations at which ROS content in PQ-treated cells was reduced [4]: effective at concentrations of 1 and 10 μM
- increase of Hsp70 level in PQ-treated cells [5]: 56%
- increase in the average number of neurites per cell [6]: 27%
- increase of neurites-bearing cell amount compared to PQ-treated control [6]: 134%
- inhibition of histamine release induced by anti-IgE [7]: inhibitors of histamine release
